From publication PMC10900215 (JACS Au, 2024)

Key:
METTL3 [1] = molecular target: T1, METTL3 (Homo sapiens, UniProt Q86U44); experiment: Cellular thermal shift assay (CETSA) in MOLM-13, METTL3; assay type: cell-based; settings: MOLM-13, 54 °C
T1 construct: METTL3–14 degradation up to 70% of the endogenous level; endogenous in cells; host or cells: MOLM-13, PC3, DU145
Method: One million of MOLM-13 cells were suspended in 100 μL of PBS (10010023, Thermo Fisher Scientific) containing 2× protease inhibitor cocktail (11697498001, Roche), for each condition tested. Cells were incubated with compounds or DMSO control (1% (v/v)) for 1 h at 37 °C. They were then heat treated at 54 °C in a thermoblock for 3 min, followed by cooling to room temperature (3 min). Next, samples were lysed by threefreeze–thaw cycles in liquid nitrogen and centrifuge at 16000 g for 30 min, 4 °C. Equal volumes of control and tested samples (12 μL) were analyzed by Western blot. The changes in the amount of METTL3 protein (after normalization for β-actin and/or GAPDH) were monitored by performing densitometry in Image Studio Lite software and analyzed in GraphPad Prism 9.

Cereblon (CRBN) = molecular target: T2, Cereblon (CRBN) (Homo sapiens, UniProt Q96SW2); experiment: Cellular thermal shift assay (CETSA) in MOLM-13, Cereblon; assay type: cell-based; settings: MOLM-13, 54 °C
T2 construct: endogenous in cells; host or cells: MOLM-13
T2 sequence (Q96SW2 whole entry): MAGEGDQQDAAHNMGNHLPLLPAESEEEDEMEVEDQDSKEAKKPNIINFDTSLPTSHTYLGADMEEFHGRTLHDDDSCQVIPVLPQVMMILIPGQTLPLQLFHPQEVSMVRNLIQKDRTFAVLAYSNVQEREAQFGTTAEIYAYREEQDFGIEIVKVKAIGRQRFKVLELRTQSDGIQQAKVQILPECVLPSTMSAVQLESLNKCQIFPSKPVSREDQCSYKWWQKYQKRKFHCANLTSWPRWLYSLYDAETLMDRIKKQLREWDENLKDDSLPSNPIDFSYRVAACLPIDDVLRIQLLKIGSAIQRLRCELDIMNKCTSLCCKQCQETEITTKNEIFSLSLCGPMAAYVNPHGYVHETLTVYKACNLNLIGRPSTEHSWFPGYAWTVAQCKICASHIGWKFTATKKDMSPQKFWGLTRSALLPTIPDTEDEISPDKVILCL

METTL3 [2] = molecular target: T3, METTL3 (Homo sapiens, UniProt Q86U44+Q96SW2); experiment: In vitro ubiquitination assay, METTL3; assay type: biochemical; settings: 2 μM compound, 30 °C, 2 h
T3 construct: Human full-length METTL3-METTL14 was expressed and purified as described above; Human full-length cereblon-DDB1 and 6xHis-CUL4A-6xHis-RBX1 were coexpressed; StrepII (N); GFP (N); TEV site (N); made in house; host or cells: baculovirus/Sf9 insect cells (METTL3-METTL14, cereblon-DDB1, CUL4A-RBX1)
T3 sequence (Q86U44 whole entry): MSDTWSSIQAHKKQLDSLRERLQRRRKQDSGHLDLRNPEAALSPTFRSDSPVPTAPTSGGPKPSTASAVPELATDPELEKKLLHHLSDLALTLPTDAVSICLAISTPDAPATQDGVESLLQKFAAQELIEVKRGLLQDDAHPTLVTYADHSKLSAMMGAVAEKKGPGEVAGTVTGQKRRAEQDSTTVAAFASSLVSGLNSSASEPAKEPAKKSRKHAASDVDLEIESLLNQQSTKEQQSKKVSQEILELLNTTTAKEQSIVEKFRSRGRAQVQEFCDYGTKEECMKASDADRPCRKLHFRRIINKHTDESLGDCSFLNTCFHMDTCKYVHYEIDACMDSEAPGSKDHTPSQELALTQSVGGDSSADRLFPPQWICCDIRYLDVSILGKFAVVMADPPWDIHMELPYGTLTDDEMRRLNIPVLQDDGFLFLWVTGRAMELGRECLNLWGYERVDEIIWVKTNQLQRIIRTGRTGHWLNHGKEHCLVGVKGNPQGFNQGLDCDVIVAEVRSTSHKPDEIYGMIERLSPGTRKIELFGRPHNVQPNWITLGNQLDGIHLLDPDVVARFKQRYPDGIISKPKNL
T3 sequence (Q9HCE5 whole entry partner): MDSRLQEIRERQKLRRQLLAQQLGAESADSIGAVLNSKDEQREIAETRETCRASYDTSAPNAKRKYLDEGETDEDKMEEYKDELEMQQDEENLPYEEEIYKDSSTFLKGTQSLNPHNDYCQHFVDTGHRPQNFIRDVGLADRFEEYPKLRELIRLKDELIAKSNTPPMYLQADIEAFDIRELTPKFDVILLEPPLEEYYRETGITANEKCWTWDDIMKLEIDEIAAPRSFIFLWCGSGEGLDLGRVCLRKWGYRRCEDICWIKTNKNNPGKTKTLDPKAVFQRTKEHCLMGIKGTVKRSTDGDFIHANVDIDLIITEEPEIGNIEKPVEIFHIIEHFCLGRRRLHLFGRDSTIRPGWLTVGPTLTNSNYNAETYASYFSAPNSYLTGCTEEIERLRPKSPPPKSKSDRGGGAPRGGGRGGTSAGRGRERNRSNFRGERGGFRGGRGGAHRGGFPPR
T3 sequence (Q96SW2 whole entry): as the sequence (Q96SW2 whole entry) above
T3 sequence (Q16531 whole entry partner): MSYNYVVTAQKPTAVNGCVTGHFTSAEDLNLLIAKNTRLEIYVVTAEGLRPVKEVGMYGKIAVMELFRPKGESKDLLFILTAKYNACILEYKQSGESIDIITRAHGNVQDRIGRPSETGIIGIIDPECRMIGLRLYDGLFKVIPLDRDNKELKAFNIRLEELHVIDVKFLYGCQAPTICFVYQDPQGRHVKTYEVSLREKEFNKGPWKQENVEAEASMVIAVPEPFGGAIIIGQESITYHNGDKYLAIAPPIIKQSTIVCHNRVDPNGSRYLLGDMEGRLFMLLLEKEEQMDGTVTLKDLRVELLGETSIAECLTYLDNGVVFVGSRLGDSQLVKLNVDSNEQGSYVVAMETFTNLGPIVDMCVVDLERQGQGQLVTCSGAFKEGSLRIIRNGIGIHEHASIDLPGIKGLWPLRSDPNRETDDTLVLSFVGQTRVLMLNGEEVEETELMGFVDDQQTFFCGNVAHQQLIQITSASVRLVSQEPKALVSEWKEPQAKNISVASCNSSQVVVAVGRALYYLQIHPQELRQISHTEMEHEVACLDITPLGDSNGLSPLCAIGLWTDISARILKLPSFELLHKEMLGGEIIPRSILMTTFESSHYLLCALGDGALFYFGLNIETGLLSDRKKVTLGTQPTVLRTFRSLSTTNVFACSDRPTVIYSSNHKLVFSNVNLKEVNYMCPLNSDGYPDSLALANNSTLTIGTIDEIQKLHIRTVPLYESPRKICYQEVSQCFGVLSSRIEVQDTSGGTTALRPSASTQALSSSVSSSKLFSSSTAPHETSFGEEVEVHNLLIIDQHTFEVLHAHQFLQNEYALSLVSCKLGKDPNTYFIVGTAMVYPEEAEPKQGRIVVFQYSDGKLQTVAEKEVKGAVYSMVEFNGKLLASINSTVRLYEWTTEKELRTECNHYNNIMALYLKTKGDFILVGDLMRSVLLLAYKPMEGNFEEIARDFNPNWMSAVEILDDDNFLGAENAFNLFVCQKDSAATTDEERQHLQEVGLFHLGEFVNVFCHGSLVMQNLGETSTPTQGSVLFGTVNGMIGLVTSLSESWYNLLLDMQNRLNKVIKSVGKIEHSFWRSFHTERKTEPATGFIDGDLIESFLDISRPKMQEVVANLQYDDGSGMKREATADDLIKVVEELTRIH
T3 sequence (Q13619 whole entry partner): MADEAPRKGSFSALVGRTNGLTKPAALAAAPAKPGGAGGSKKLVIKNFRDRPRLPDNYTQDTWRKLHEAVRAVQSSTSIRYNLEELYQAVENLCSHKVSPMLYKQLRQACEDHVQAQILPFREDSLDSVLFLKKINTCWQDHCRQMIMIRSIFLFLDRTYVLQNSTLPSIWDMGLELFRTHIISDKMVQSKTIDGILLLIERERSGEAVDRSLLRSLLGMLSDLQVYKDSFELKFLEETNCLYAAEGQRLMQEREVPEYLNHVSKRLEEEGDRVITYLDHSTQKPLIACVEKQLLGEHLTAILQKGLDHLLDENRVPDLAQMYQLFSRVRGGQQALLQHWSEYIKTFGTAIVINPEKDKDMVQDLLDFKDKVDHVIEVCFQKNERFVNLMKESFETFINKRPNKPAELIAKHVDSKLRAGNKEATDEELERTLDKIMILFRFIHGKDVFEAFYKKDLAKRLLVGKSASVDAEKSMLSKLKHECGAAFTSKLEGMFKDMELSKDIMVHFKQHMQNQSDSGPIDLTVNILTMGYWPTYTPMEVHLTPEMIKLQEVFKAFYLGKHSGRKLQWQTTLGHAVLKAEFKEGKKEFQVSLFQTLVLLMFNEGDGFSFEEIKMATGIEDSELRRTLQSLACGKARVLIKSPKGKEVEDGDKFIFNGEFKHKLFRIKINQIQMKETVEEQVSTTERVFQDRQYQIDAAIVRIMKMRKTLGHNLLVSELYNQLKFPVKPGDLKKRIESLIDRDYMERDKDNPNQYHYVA
T3 sequence (P62877 whole entry partner): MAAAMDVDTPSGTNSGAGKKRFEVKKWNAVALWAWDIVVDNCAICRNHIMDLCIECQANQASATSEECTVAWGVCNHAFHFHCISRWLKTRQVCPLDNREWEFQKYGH
Method: (§1) For the cell-free in vitro ubiquitination of METTL3-METTL14 purified E1, E2, ubiquitin, CUL4A-RBX1, Cereblon-DDB1, and METTL3-METTL14 were used. Human full-length METTL3-METTL14 was expressed and purified as described above. […] Purified recombinant human UBE1 E1 (E-305–025) was purchased from R&D Systems, UbcH5a E2 (23–029) from Merck and ubiquitin (SBB-UP0013) from South Bay Bio. For the ubiquitination reaction, components were mixed to final concentrations of 0.06 μM UBE1, 1.96 μM UbcH5a, 39 μM ubiquitin, 0.33 μM CUL4A-RBX1, 0.33 μM Cereblon-DDB1, 0.5 μM METTL3-METTL14, and different concentrations of compound 14 or me-14 (0, 2, 8, or 32 μM) in reaction buffer (50 mM Tris-HCl pH 7.6, 5 mM MgCl2, 0.2 mM CaCl2, 1 mM DTT, 100 mM NaCl, 0.01% BSA, 0.01% Triton X-100). The final reaction volume was 15 μL. After the addition of 2 mM ATP (or the equal volume of water for the control without ATP), the reaction mixture was incubated for 2 h at 30 °C. […] The signals were quantified by using the Image Studio Lite software. To determine the percentage of ubiquitinated METTL3, the fraction of unmodified METTL3 was calculated by dividing the signal of the band assigned to unmodified METTL3 by the signal of the area containing both the unmodified and (poly)ubiquitinated METTL3 and normalizing to the control without ATP. […]

METTL14 = experiment: In vitro ubiquitination assay, METTL14; assay type: biochemical, human; settings: 2, 8, 32 μM compound, 30 °C, 2 h
Method: as §1

[3] = system: m6A/A levels in polyadenylated RNA; experiment: UPLC-MS/MS quantification of m6A/A in polyadenylated RNA in MOLM-13; assay type: cell-based, human; settings: MOLM-13, 2 μM, 24 h
Method: UPLC-MS/MS was performed as previously described.[28]
Briefly, MOLM-13 cells were seeded into 6 well plates at a density of 1 × 10^6 cells/mL in 2 mL of complete RPMI medium. Cells were treated with the indicated concentrations of compounds or DMSO control (final concentration 0.5% (v/v)) for 24 h. Following the incubation, cells were collected by centrifugation and washed once with PBS, and total RNA was extracted using 0.5 mL of GENEzol reagent according to the manufacturer’s instructions. The final volume of 50 μL of total RNA eluate was subjected to two rounds of purification using 25 μL of Sera-Mag magnetic oligo(dT) particles (Cytiva) per sample. The polyadenylated RNA was eluted with nuclease-free water in a final volume of 25 μL, and its concentration was determined using NanoDrop. One hundred nanograms of mRNA were digested to nucleosides and dephosphorylated in a one-pot reaction using 0.5 μL of nucleoside digestion mix (M0649S, NEB) in 25 μL of total reaction volume for 4 h at 37 °C. The samples were used for UPLC-MS/MS analysis without further purification steps. The data were plotted by using GraphPad Prism 9.

T1 sequence (Q86U44 2-580 limits assumed): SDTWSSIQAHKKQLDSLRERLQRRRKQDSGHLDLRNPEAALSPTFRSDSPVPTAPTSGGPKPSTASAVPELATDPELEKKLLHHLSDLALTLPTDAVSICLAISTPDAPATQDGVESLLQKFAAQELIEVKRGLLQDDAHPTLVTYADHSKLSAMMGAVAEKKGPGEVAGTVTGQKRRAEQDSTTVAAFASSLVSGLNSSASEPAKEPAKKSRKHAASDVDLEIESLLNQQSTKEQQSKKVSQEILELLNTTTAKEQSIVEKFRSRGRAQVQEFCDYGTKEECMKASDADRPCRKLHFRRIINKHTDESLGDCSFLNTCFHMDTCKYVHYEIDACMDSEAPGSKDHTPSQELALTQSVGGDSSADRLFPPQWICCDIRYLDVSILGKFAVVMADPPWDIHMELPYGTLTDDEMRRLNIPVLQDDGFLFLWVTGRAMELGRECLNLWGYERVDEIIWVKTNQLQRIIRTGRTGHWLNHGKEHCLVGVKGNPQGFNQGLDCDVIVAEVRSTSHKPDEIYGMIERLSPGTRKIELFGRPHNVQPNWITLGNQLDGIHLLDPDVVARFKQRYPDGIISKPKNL
T1 sequence (Q9HCE5 whole entry partner): as the sequence (Q9HCE5 whole entry partner) above

SMILES | stabilization of METTL3 (CETSA) (METTL3 [1]) | stabilization of Cereblon (CETSA) (Cereblon (CRBN)) | ubiquitination level of METTL3 (METTL3 [2]) [%] | ubiquitination of METTL14 (METTL14) | m6A/A levels [3]
CC1(C)CCN(Cc2cc(F)c(N3CC(=O)NC4(CCN(c5cc(NCc6cccc(CNC(=O)CCCNc7cccc8c7C(=O)N(C7CCC(=O)NC7=O)C8=O)c6)ncn5)CC4)C3)cc2F)CC1 (centres unmarked) [Compound 14] | stabilize METTL3 in a concentration-dependent manner | visible | ~40 | not as pronounced | –
CC1(C)CCN(Cc2cc(F)c(N3CC(=O)NC4(CCN(c5cc(NCC6CCN(C(=O)CCCNc7cccc8c7C(=O)N(C7CCC(=O)NC7=O)C8=O)CC6)ncn5)CC4)C3)cc2F)CC1 (centres unmarked) [Compound 22] | – | – | – | – | slight reduction
